What was measured:
beagle dogs [1] = assay: Study of tolerance of BIM2b PO in healthy dogs
[2] = Analysis of BIM2b in the brains of mice treated per os with BIM2b PO (HPTLC); type: in vivo, mouse; conditions: for Compound BIM2b (μg/g of brain): healthy mice, BIM2b PO per os
Description: The mouse brains dried and stored invididually in cryotubes at […] in liquid nitrogen are left to return to ambient temperature. Each brain is weighed and put in the Potter; 4 ml of 0.74% of cold KCl is added and the rest of the procedure takes place on a bed of ice. Each brain is ground 6 times at 1000 rev/min, each cycle comprising 5 minutes of grinding and 5 minutes of rest. The oxysterols are extracted according to the Folch procedure described above (II.3.). The lipid residue is then subjected to adsorption chromatography on a silica column.
The silica (8 g) is prepared in 40 ml of the hexane:ether mixture (diethyl-oxide (3:7, v/v) and then poured into the appropriate columns. The height of the silica bed is 18 cm and its volume is 15 ml.
A suitable quantity of mouse brain extract is dissolved in 1 ml of the first eluent system and deposited on the silica bed. Elution takes place in 4 steps in order to concentrate the fractions containing the oxysterols and remove as far as possible the lipids contaminating the mouse brain, in particular cholesterol.
The groups of fractions are evaporated to dryness, dissolved in acetone and the appropriate volumes are subjected to HPTLC chromatography.
The treatment of the healthy mice per os with BIM2b PO and the provenance of the brains are described in Example 4.
The compound BIM2b and its metabolites in the brains were separated, detected and quantified by HPTLC as described in the Methods section.

spontaneous gliomas = assay: Anti-GBM efficacy of BIM2b PO by the oral route in dogs with spontaneous gliomas; type: in vivo; conditions: oral treatment; mean survival of a dog with GBM 2-3 months
Description: 9 dogs with spontaneous gliomas diagnosed by imagery were included in the study.
The condition and the tumour volume are evaluated by MRI.
On day D0 (1st administration), the GBM dog subject is examined clinically and a blood sample is collected for analysis of the biochemical parameters. On D15, an electrocardiogram is recorded and a blood sample is taken.
Electrocardiograms, blood samples and MRI are carried out on D42, D63, D84 and D105, then 3 months and 6 months after stopping the treatment.
The tumour response is evaluated by MRI based on the RECIST criteria (Response Evaluation Criteria in Solid Tumours). These criteria define the tumoral response as follows: • progression is an increase in size of the largest axis of the tumour of more than 20% relative to the preceding MRI; • regression is defined by a decrease in the size of the largest axis of the tumour of more than 30% relative to the preceding MRI; • stability is defined by a change in the size of the tumour between a decrease of less than 30% and an increase of less than 20%.

beagle dogs [3] = conditions: dog, in vivo
wild-type mice [4] = conditions: mouse, in vivo
Description: (§1) The composition from Example 2 was administered orally (by tube) to wild-type mice at a rate of 1.5 mg (50 μl of BIM2 PO) per animal, twice a day, 5 days out of 7 with a maximum duration of treatment of 21 days.
(§2) In the treated group, 2 mice were sacrificed after 18 days and 3 mice were sacrificed after 21 days. In the control group, 3 mice were sacrificed after 21 days.
(§3) The samples of internal organs (stomach, alimentary canal, liver, kidney, lung, heart) were immersed in 4% formaldehyde for 72 h and stored at 4° C., and then embedded in paraffin. The samples underwent macroscopic analysis before and after thinning.
(§4) Histological examination of the internal organs fixed with formaldehyde and toxicological quantifications were carried out on sections stained with haematoxylin-eosin-saffron according to a 4-level evaluation system complying with the nomenclature (3).
(§5) All the sections were examined for possible signs of cellular alteration, degeneration, necrosis, inflammation, fibrosis etc.

wild-type mice [5] = assay: Investigation of toxicity of BIM2b PO in healthy mice
Description: as §1, §2, §3, §4, §5

[6] = in vivo
Description: The GBM tumour was obtained by necropsy of a dog with glioblastoma, which was treated by the oral route with BIM2b PO and which lived with a good quality of life for 8 months. Necropsy was carried out 21 days after stopping the treatment with BIM2b PO. The tumour was fixed in formol mainly for histopathology analysis and a remaining fragment was analysed for quantification of BIM2b.
The fragments of dog brains, stored individually in cryotubes at +4° C. in a bath of formol, are dried on sopalin paper before they are weighed and put in the Potter. Just as for extraction of the mouse brains, each fragment was extracted after adding 4 ml of cold 0.74% KCl. The procedures for homogenization and extraction are the same as was described for the mouse brains in the Methods section.
Dry lipid extract of the dog GBM tumour fragment was thus obtained and was chromatographed sequentially on a SEP PAK Classic Silica cartridge; then on SEP PAK Plus C18 (with eluent A=5 mM of ammonium acetate/ultrapure water and B=5 mM of ammonium acetate/MetOH).
The compound BIM2b and its metabolites in the tumour are separated, detected and quantified by HPTLC as described in Section II) Methods.

GBM = conditions: cited from earlier work

CC(=O)O[C@H]1C=C2CC(OC(=O)C3COC(C)(C)O3)CC[C@]2(C)C2CC[C@@]3(C)C(CCC3[C@H](C)CCCC(C)C)C21 (stereo in doubt) [BIM2b, 7-acetoxy-10,13-dimethyl-17-(6-methylheptan-2-yl)-2,3,4,7,8,9,10,11,12,13,14,15,16,17-tetradecahydro-1H-cyclopenta[a]phenanthren-3-yl 2,2-dimethyl-1,3-dioxolane-4-carboxylate]
hepatic or renal toxicity (beagle dogs [1]): did not demonstrate hepatic or renal toxicity | toxicity (conclusion) (beagle dogs [1]; administered as BIM2b PO): does not lead to any toxicity | Compound BIM2b (μg/g of brain) ([2]; Day D2): 12.5 μg/g of brain | Compound BIM2b (μg/g of brain) ([2]; Day D4): 7.1 μg/g of brain | Compound BIM2b (μg/g of brain) ([2]; Day D18): 11.7 μg/g of brain | Compound BIM2b (μg/g of brain) ([2]; Day D22 (treatment stopped on D20)): 1.0 μg/g of brain | percentage of BIM2b found in the brains relative to the total quantity ingested ([2]; on D18): 0.013% | drop in the content of BIM2b in the mouse brain ([2]; on D22, after stopping of the treatment on D20): 91.5% | crossing of the blood-brain barrier (BBB) ([2]; treated healthy mice, oral): crosses the blood-brain barrier (BBB) | survival of the GBM dog subject whose tumour was analysed (spontaneous gliomas): 8 months | undesirable clinical effects (beagle dogs [3]): did not cause undesirable clinical effects | hepatic or renal toxicity (biological parameters) (wild-type mice [4]): did not demonstrate hepatic or renal toxicity | toxicity (conclusion) (wild-type mice [5]; oral): does not entrain any toxicity | undesirable clinical effects (wild-type mice [5]; twice a day, 5 times a week): did not give rise to undesirable clinical effects | crossing of the BTB ([6]; dog): crosses the BTB | percentage by weight of BIM2b found in the whole tumour relative to the total quantity ingested ([6]; dog): 0.39% | ratio of percentage in dog tumour to percentage in brains of healthy mice ([6]; 21 days after stopping the treatment): 30 times

CN(C)C/C=C/C(=O)Nc1cc2c(Nc3ccc(F)c(Cl)c3)ncnc2cc1O[C@H]1CCOC1 [afatinib dimaleate]
median survival for patients with GBM (GBM): do not improve the median survival

N.N.[Cl][Pt][Cl] [cisplatin]
median survival for patients with GBM (GBM): do not improve the median survival

O=P1(N(CCCl)CCCl)NCCCO1 (stereo not drawn) [cyclophosphamide]
median survival for patients with GBM (GBM): do not improve the median survival

bleomycin
median survival for patients with GBM (GBM): do not improve the median survival

From patent US20210283146A1, “COMPOSITION CONTAINING A 7BETA-HYDROXYCHOLESTEROL AND A LIPID VEHICLE, AND ITS USE IN THE TREATMENT OF NEOPLASTIC PATHOLOGIES” (priority 2018, published 2021)
